The source of these data is patent publication US10774124B2, “Protease resistant mutants of stromal cell derived factor-1 in the repair of tissue damage” (THE BRIGHAM AND WOMEN'S HOSPITAL, INC., priority 2006, dated 2020).

The test system of one experiment is Jurkat T cells. Briefly: Jurkat T cell migration assay. It counts as cell-based. Conditions: for activity on T-cell migration: compared to native SDF-1; for activity in promoting T cell migration: concentration of 100 nM, versus unmutated SDF-1. The procedure: Cells from a 4-L growth were lysed in 300 ml lysis buffer (6M Guanidine, 20 mM phosphate (pH 7.8), 500 mM NaCl) and homogenized. Debris is collected by centrifugation at 3000 g. The first purification step consisted of capture of the poly-histidine tag present in the SUMO-SDF-1α fusion protein with Nickel-NTA. Nickel-NTA resin was washed with wash buffer (8M Urea, 500 mM NaCl, 20 mM phosphate (pH 6.2)) and the bound protein was eluted at pH 4. Further purification and oxidative refolding were performed on a Cation Exchange HPLC column. The sample was adjusted to binding buffer (8M Urea, 30 mM 2-mercaptoethanol, 1 mM EDTA, 50 mM Tris pH8) and loaded on the HPLC column. Refolding of Sumo-SDF-1 was performed on the column with a 2 h run of refolding buffer (50 mM Tris pH8, 75 mM NaCl, 0.1 mM reduced Glutathione and 0.1 mM oxidized Glutathione). Sumo-SDF-1 was eluted with a step gradient (0.5 to 1M NaCl) and concentrated. The SUMO-SDF-1 fusion protein was cleaved by Sumo Protease 1 (IU/50 μg protein) in 50 mM Tris pH 8.0, 500 mM NaCl. The sample was adjusted to 0.1% trifluoroacetic acid (TFA) and loaded on a C18 Reversed Phase HPLC column for the final purification step. The column was subjected to a linear gradient from 30 to 40% acetonitrile in 0.1% TFA. The fractions containing SDF-1 were lyophilized and resuspended. Activity of purified SDF-1 was tested by migration of Jurkat T-lymphocyte cell line.
The mutated forms of SDF-1 were examined in an assay of migration of Jurkat T cells at a concentration of 100 nM.
Migration experiments were performed with the Jurkat T-lymphocyte cell line. […] Therefore, if 500 times higher concentrations were used compared to full-length protein, the same migratory response of T-lymphocytes should be observed. […] This is a similar shift to that seen between native SDF-1 and SDF-1(S4V).

The target in experiment [1] is T1, MMP-2 (Homo sapiens, UniProt P08253).
T1 sequence (P08253 110-660): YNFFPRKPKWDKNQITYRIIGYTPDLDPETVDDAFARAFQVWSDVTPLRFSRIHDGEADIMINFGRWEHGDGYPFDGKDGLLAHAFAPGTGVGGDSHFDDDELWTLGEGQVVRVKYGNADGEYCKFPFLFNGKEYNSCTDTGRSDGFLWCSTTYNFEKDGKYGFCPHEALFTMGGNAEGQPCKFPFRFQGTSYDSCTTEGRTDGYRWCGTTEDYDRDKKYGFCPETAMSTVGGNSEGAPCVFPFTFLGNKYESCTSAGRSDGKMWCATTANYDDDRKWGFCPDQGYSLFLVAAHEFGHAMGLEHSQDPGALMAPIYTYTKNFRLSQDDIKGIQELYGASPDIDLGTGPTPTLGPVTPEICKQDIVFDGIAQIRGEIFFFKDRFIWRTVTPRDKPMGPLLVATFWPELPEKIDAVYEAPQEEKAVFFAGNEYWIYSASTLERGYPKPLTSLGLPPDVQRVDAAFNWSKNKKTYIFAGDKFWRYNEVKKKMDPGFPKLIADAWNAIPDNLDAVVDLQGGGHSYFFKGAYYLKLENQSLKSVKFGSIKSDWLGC
Kind of experiment: MMP-2 cleavage, incubation product examined by SDS-PAGE. It counts as biochemical. Conditions: for cleavage by MMP-2 (SDS-PAGE): 2 nmole peptide incubated with MMP-2 for 1 h at RT. The procedure: The susceptibility of the peptides to cleavage by MMP-2 was determined by incubating the mutants with the enzyme for one hour and then examining the incubation product by SDS-PAGE.
Cleavage experiments of the peptides with MMP-2 were performed: 2 nmole of SDF-1 17AA, SDF-1(S4V) 17AA, and SDF-1(L5P) 17AA were incubated with MMP-2 for 1 h at RT. Proteins were run on an SDS-PAGE showing cleavage of SDF-1 17AA, but not of SDF-1(S4V) 17AA or SDF-1(L5P) 17AA. Thus, these truncated proteins may be useful therapeutically, as they are still bioactive and also MMP-2 resistant.

The target in experiment [2] is T1, MMP-2. Briefly: Jurkat T-cell migration assay after MMP-2 incubation. It counts as cell-based.
The subject of experiment [3] is T lymphocytes and CEM cells. Conditions: cited from earlier work; for EC50: read-out: half-maximal chemoattractant activity; for induce chemotaxis: T lymphocytes and CEM cells; for fold less potent than SDF-1: chemoattractant activity, relative to native SDF-1.
For experiment [4], the target named is CXC chemokine receptor 4 (CXCR4) (Homo sapiens, UniProt P61073). Conditions: cited from earlier work.
Chain of CXC chemokine receptor 4 (CXCR4) (P61073 whole entry): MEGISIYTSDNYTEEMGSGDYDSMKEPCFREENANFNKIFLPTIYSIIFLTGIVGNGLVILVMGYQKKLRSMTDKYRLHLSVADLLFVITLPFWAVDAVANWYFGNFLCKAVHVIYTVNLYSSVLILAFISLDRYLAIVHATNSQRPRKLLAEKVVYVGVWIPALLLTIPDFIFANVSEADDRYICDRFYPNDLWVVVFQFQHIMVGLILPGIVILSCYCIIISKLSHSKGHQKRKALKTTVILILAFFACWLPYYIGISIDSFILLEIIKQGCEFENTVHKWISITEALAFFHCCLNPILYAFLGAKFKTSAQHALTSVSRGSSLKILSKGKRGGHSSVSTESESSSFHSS
Experiment [5] deals with T lymphocytes and CEM cells. Conditions: cited from earlier work.

Read-outs that look alike come from different tables or passages of the source. No end group written: not given here.

As to “SDF-1(S4V) 17AA: KPVVLSYRCPCRFFESH (SEQ ID 65) (listed as Homo sapiens)”, in the experiment on Jurkat T cells (Jurkat T-lymphocyte migration), the “times less potent than SDF-1 17AA without mutation” value is recorded as “three times less potent”. The “cleavage by MMP-2 (SDS-PAGE)” value in the experiment with MMP-2 [1] was “not”.
Turning to “SCR: GIVGPL (SEQ ID NO:58), linker sequence, a scrambled version of the MMP-2 cleavage site MCS (listed as Homo sapiens)”, the “MMP-2 cleavage of linker sequence” value with MMP-2 [1] (rate compared with MCS) is “undergo MMP-2 cleavage, although at a slower rate than MCS”.
For the substance “SDF-1(L5W): SDF-1 mutant, leucine at position 5 changed to tryptophan”, in the experiment on Jurkat T cells, the “activity on T-cell migration” value is listed as “minimal activity” and the “activity in promoting T cell migration” value is “greatly reduced”.
Take “SDF-1(L5E): SDF-1 mutant, leucine at position 5 changed to glutamic acid”: in the experiment on Jurkat T cells, the “activity on T-cell migration” value is reported as “minimal activity” and the “activity in promoting T cell migration” value is reported as “greatly reduced”.
Consider “SDF-1 17AA: KPVSLSYRCPCRFFESH (SEQ ID 64), first 17 amino acids of native SDF-1 (listed as Homo sapiens)”, for which the “times less potent than native SDF-1” value in the experiment with Jurkat T cells (Jurkat T-lymphocyte migration) is on record as 500 times. In addition, the “cleavage by MMP-2 (SDS-PAGE)” value with MMP-2 [1] is recorded as “cleavage”.
As for stromal cell derived factor-1 [SDF-1], the “chemoattractant activity after MMP-2 incubation” value (shortened to “chemoattractant activity”) with MMP-2 [2] was “reduce the chemoattractant activity”. Besides, the EC50 in experiment [3] is 5 nM. Besides, in the experiment with MMP-2 [1] (incubated with the enzyme for one hour), the “cleavage by MMP-2 (positional shift on SDS-PAGE)” value was “positional shift indicative of cleavage”.
Consider “1-8: peptide of N-terminal residues 1-8 of SDF-1 (KPVSLSYR; UniProt P48061 22-29, looked up, fragment)”, for which the induce chemotaxis result in experiment [3] was “induce”. For the same substance, in experiment [4], the “bind to CXCR4” value is reported as “bind”. The induce intracellular calcium result in experiment [5] was “induce”.
With “1-9 dimer: dimer of the SDF-1 1-9 peptide (KPVSLSYRC; also: dimer; UniProt P48061 22-30, looked up, fragment)”, in experiment [3], the induce chemotaxis result is recorded as “induce”, the “fold less potent than SDF-1” value is given as 100 fold and the EC50 is 500 nM. Besides, in experiment [4], the “bind to CXCR4” value is “bind”. The induce intracellular calcium result in experiment [5] was “induce”.
In the case of “1-17: peptide of N-terminal residues 1-17 of SDF-1 (KPVSLSYRCPCRFFESH; UniProt P48061 22-38, looked up, fragment)”, in experiment [3], the induce chemotaxis entry is reported as “induce” and the “fold less potent than SDF-1” value is 400 fold. Besides, the “bind to CXCR4” value in experiment [4] is on record as “bind”. The induce intracellular calcium result in experiment [5] is recorded as “induce”.
As to “SDF-1(S4V): SDF-1 mutant, serine at position 4 changed to valine, SEQ ID NO:54”, in the experiment with MMP-2 [2], the “chemoattractant activity” value is recorded as “not”. Also, in the experiment with MMP-2 [2] (listed as S4V variant of SDF-1), the “chemoattractant activity” value was “resistant to activation by MMP-2”. In the experiment on Jurkat T cells, the “activity on T-cell migration” value was “bioactivity comparable to native SDF-1” and the “activity in promoting T cell migration” value was “retained most of the activity of unmutated SDF-1”.
In the case of “SDF-1(L5P) 17AA: KPVSPSYRCPCRFFESH (SEQ ID 66) (listed as Homo sapiens)”, the “times less potent than SDF-1 17AA without mutation” value with Jurkat T cells (Jurkat T-lymphocyte migration) is “three times less potent”. Besides, in the experiment with MMP-2 [1], the “cleavage by MMP-2 (SDS-PAGE)” value is “not”.
In the case of “SDF-1(L5P): SDF-1 mutant, leucine at position 5 changed to proline, SEQ ID NO:56”, in the experiment with Jurkat T cells, the “activity on T-cell migration” value was “bioactivity comparable to native SDF-1” and the “activity in promoting T cell migration” value is “retained most of the activity of unmutated SDF-1”.
In the case of “1-9: peptide of N-terminal residues 1-9 of SDF-1 (KPVSLSYRC; UniProt P48061 22-30, looked up, fragment)”, in experiment [3], the induce chemotaxis entry was “induce” and the “fold less potent than SDF-1” value is reported as 3600 fold. In addition, the “bind to CXCR4” value in experiment [4] was “bind”. Besides, in experiment [5], the induce intracellular calcium result is “induce”.
